# Results published in patent publication US6511961B1, “Cyclic peptides and medicinal use thereof” (Toray Industries, Inc., priority 1997, dated 2003).
# Like-named read-outs stand apart in the source and are kept apart here.
# Details: disulfide bond, 20-membered ring, AgOTf/anisole/TFA, then DMSO/HCl, 50% DMSO-1N HCl, 2 steps
structure (smiles),measurement,setting,value
CC[C@H](C)[C@@H]1NC(=O)[C@@H](NC(C)=O)CSSC[C@@H](C(=O)O)NC(=O)[C@H](CC(C)C)NC(=O)[C@H](Cc2c[nH]cn2)NC(=O)[C@H](CC(=O)O)NC1=O [AcC*IDHLC*],"ring closure, yield after HPLC",from Ac-Cys(Acm)-Ile-Asp-His-Leu-Cys(Acm)-OH,68%
CC(C)C[C@@H]1NC(=O)[C@H](Cc2c[nH]cn2)NC(=O)[C@H](CC(=O)O)NC(=O)[C@H](C)NC(=O)[C@@H](N)CSSC[C@@H](C(=O)O)NC1=O [C*ADHLC*],"ring closure, yield after HPLC",from H-Cys(Acm)-Ala-Asp-His-Leu-Cys(Acm)-OH,59%
CC(C)C[C@@H]1NC(=O)[C@H](Cc2c[nH]cn2)NC(=O)[C@H](CC(=O)O)NC(=O)[C@H](C2CCCCC2)NC(=O)[C@@H](N)CSSC[C@@H](C(=O)O)NC1=O [C*ChgDHLC*],"ring closure, yield after HPLC",from H-Cys(Acm)-Chg-Asp-His-Leu-Cys(Acm)-OH,68%
CC(C)C[C@@H]1NC(=O)[C@H](Cc2c[nH]cn2)NC(=O)[C@H](CCS(C)(=O)=O)NC(=O)[C@H](C2CCCCC2)NC(=O)[C@@H](N)CSSC[C@@H](C(=O)O)NC1=O [C*ChgMet(O2)HLC*],"ring closure, yield after HPLC",from H-Cys(Acm)-Chg-Met(O2)-His-Leu-Cys(Acm)-OH,41%
CC[C@H](C)[C@@H]1NC(=O)[C@H](c2ccccc2)NC(=O)[C@H](CCS(C)(=O)=O)NC(=O)[C@H](C2CCCCC2)NC(=O)[C@@H](N)CSSC[C@@H](C(=O)O)NC1=O [C*ChgMet(O2)PhgIC*],"ring closure, yield after HPLC",from H-Cys(Acm)-Chg-Met(O2)-Phg-Ile-Cys(Acm)-OH,3%
CC(C)C[C@@H]1NC(=O)[C@H](c2ccccc2)NC(=O)[C@H](CCS(C)(=O)=O)NC(=O)[C@H](C2CCCCC2)NC(=O)[C@@H](N)CSSC[C@@H](C(=O)O)NC1=O [C*ChgMet(O2)PhgLC*],"ring closure, yield after HPLC",from H-Cys(Acm)-Chg-Met(O2)-Phg-Leu-Cys(Acm)-OH,4%
CC(C)C[C@@H]1NC(=O)[C@H](c2ccccc2)NC(=O)[C@H](CCS(C)(=O)=O)NC(=O)[C@H](C2CCCCC2)NC(=O)[C@@H](N)CSSC[C@H](C(=O)O)NC1=O [C*ChgMet(O2)PhgLdC*],"ring closure, yield after HPLC",from H-Cys(Acm)-Chg-Met(O2)-Phg-Leu-dCys(Acm)-OH,42%
CC(C)C[C@@H]1NC(=O)[C@@H](Cc2ccccc2)NC(=O)[C@H](CCS(C)(=O)=O)NC(=O)[C@H](C2CCCCC2)NC(=O)[C@@H](N)CSSC[C@@H](C(=O)O)NC1=O [C*ChgMet(O2)dFLC*],"ring closure, yield after HPLC",from H-Cys(Acm)-Chg-Met(O2)-dPhe-Leu-Cys(Acm)-OH,26%
CC(C)C[C@@H]1NC(=O)[C@@H](Cc2c[nH]cn2)NC(=O)[C@H](CCS(C)(=O)=O)NC(=O)[C@H](C2CCCCC2)NC(=O)[C@@H](N)CSSC[C@@H](C(=O)O)NC1=O [C*ChgMet(O2)dHLC*],"ring closure, yield after HPLC",from H-Cys(Acm)-Chg-Met(O2)-dHis-Leu-Cys(Acm)-OH,45%
CC(C)C[C@@H]1NC(=O)[C@@H](c2ccccc2)NC(=O)[C@H](CCS(C)(=O)=O)NC(=O)[C@H](C2CCCCC2)NC(=O)[C@@H](N)CSSC[C@@H](C(=O)O)NC1=O [C*ChgMet(O2)dPhgLC*],"ring closure, yield after HPLC",from H-Cys(Acm)-Chg-Met(O2)-dPhg-Leu-Cys(Acm)-OH,8%
CC(C)C[C@@H]1NC(=O)[C@@H](c2ccccc2)NC(=O)[C@H](CCS(C)(=O)=O)NC(=O)[C@H](C2CCCCC2)NC(=O)[C@@H](N)CSSC[C@H](C(=O)O)NC1=O [C*ChgMet(O2)dPhgLdC*],"ring closure, yield after HPLC",from H-Cys(Acm)-Chg-Met(O2)-dPhg-Leu-dCys(Acm)-OH,40%
CC(C)C[C@@H]1NC(=O)[C@@H](Cc2ccc(O)cc2)NC(=O)[C@H](CCS(C)(=O)=O)NC(=O)[C@H](C2CCCCC2)NC(=O)[C@@H](N)CSSC[C@@H](C(=O)O)NC1=O [C*ChgMet(O2)dYLC*],"ring closure, yield after HPLC",from H-Cys(Acm)-Chg-Met(O2)-dTyr-Leu-Cys(Acm)-OH,37%
CC[C@H](C)[C@@H]1NC(=O)[C@@H](N)CSSC[C@@H](C(=O)O)NC(=O)[C@H](CC(C)C)NC(=O)[C@H](Cc2c[nH]cn2)NC(=O)[C@H](CC(=O)OC)NC1=O [C*ID(OMe)HLC*],"ring closure, yield after HPLC",from H-Cys(Acm)-Ile-Asp(OMe)-His-Leu-Cys(Acm)-OH,34%
CC[C@H](C)[C@@H]1NC(=O)[C@@H](N)CSSC[C@@H](C(=O)OC)NC(=O)[C@H](CC(C)C)NC(=O)[C@H](Cc2c[nH]cn2)NC(=O)[C@H](CC(=O)OC)NC1=O [C*ID(OMe)HLC—OMe*],"ring closure, yield after HPLC",from H-Cys(Acm)-Ile-Asp(OMe)-His-Leu-Cys(Acm)-OMe,34%
CC[C@H](C)[C@@H]1NC(=O)[C@@H](N)CSSC[C@@H](C(=O)O)NC(=O)[C@H](CC(C)C)NC(=O)[C@H](C)NC(=O)[C@H](CC(=O)O)NC1=O [C*IDALC*],"ring closure, yield after HPLC",from H-Cys(Acm)-Ile-Asp-Ala-Leu-Cys(Acm)-OH,52%
CC[C@H](C)[C@@H]1NC(=O)[C@@H](N)CSSC[C@@H](C(=O)O)NC(=O)[C@H](CC(C)C)NC(=O)[C@H](Cc2ccc3ccccc3c2)NC(=O)[C@H](CC(=O)O)NC1=O [C*IDAla(2-Naph)LC*],"ring closure, yield after HPLC",from H-Cys(Acm)-Ile-Asp-Ala(2-Naph)-Leu-Cys(Acm)-OH,38%
CC[C@H](C)[C@@H]1NC(=O)[C@@H](N)CSSC[C@@H](C(=O)O)NC(=O)[C@H](CC(C)C)NC(=O)[C@H](Cc2ccccn2)NC(=O)[C@H](CC(=O)O)NC1=O [C*IDAla(2-Pyr)LC*],"ring closure, yield after HPLC",from H-Cys(Acm)-Ile-Asp-Ala(2-Pyr)-Leu-Cys(Acm)-OH,56%
CC[C@H](C)[C@@H]1NC(=O)[C@@H](N)CSSC[C@@H](C(=O)O)NC(=O)[C@H](CC(C)C)NC(=O)[C@H](CC2CCCCC2)NC(=O)[C@H](CC(=O)O)NC1=O [C*IDChaLC*],"ring closure, yield after HPLC",from H-Cys(Acm)-Ile-Asp-Cha-Leu-Cys(Acm)-OH,34%
CC[C@H](C)[C@@H]1NC(=O)[C@H](Cc2ccccc2)NC(=O)[C@H](CC(=O)O)NC(=O)[C@H]([C@@H](C)CC)NC(=O)[C@@H](N)CSSC[C@@H](C(=O)O)NC1=O [C*IDFIC*],"ring closure, yield after HPLC",from H-Cys(Acm)-Ile-Asp-Phe-Ile-Cys(Acm)-OH,37%
CC[C@H](C)[C@@H]1NC(=O)[C@@H](N)CSSC[C@@H](C(=O)O)NC(=O)[C@H](CC(C)C)NC(=O)[C@H](Cc2ccccc2)NC(=O)[C@H](CC(=O)O)NC1=O [C*IDFLC*],"ring closure, yield after HPLC",from H-Cys(Acm)-Ile-Asp-Phe-Leu-Cys(Acm)-OH,50%
CC[C@H](C)[C@@H]1NC(=O)[C@H](Cc2c[nH]cn2)NC(=O)[C@H](CC(=O)O)NC(=O)[C@H]([C@@H](C)CC)NC(=O)[C@@H](N)CSSC[C@@H](C(=O)O)NC1=O [C*IDHIC*],"ring closure, yield after HPLC",from H-Cys(Acm)-Ile-Asp-His-Ile-Cys(Acm)-OH,50%
CC[C@H](C)[C@@H]1NC(=O)[C@@H](N)CSSC[C@@H](C(=O)O)NC(=O)[C@H](CC(C)C)NC(=O)[C@H](Cc2c[nH]cn2)NC(=O)[C@H](CC(=O)O)NC1=O [C*IDHLC*],"ring closure, yield after HPLC","from H-Cys(Acm)-Ile-Asp-His-Leu-Cys(Acm)-OH, 0.48 mM",73%
CC[C@H](C)[C@@H]1NC(=O)[C@@H](N)CSSC[C@@H](C(N)=O)NC(=O)[C@H](CC(C)C)NC(=O)[C@H](Cc2c[nH]cn2)NC(=O)[C@H](CC(=O)O)NC1=O [C*IDHLC*—NH2],"ring closure, yield after HPLC",from H-Cys(Acm)-Ile-Asp-His-Leu-Cys(Acm)-NH2,58%
CC[C@H](C)[C@@H]1NC(=O)[C@@H](N)CSSC[C@@H](C(=O)OC)NC(=O)[C@H](CC(C)C)NC(=O)[C@H](Cc2c[nH]cn2)NC(=O)[C@H](CC(=O)O)NC1=O [C*IDHLC—OMe*],"ring closure, yield after HPLC",from H-Cys(Acm)-Ile-Asp-His-Leu-Cys(Acm)-OMe,35%
CC[C@H](C)[C@@H]1NC(=O)[C@@H](N)CSSC[C@@H](C(=O)O)NC(=O)[C@H](c2ccccc2)NC(=O)[C@H](Cc2c[nH]cn2)NC(=O)[C@H](CC(=O)O)NC1=O [C*IDHPhgC*],"ring closure, yield after HPLC",from H-Cys(Acm)-Ile-Asp-His-Phg-Cys(Acm)-OH,37%
CC[C@H](C)[C@@H]1NC(=O)[C@@H](N)CSSC[C@@H](C(=O)O)NC(=O)[C@@H](CC(C)C)NC(=O)[C@H](Cc2c[nH]cn2)NC(=O)[C@H](CC(=O)O)NC1=O [C*IDHdLC*],"ring closure, yield after HPLC",from H-Cys(Acm)-Ile-Asp-His-dLeu-Cys(Acm)-OH,51%
